Results reported in US4198405A, “Prostaglandine derivatives” (priority 1978, dated 1980).
Entries after “also recorded” stand apart in the source; their conditions may differ.

What was measured:
rats (uterus) = assay: Hysterotrimus and cardiac activity by intravenous injection to rats
estrogen receptor = assay: Competitive receptor assay with 3H-estradiol in rabbit uterus; assay type: binding; conditions: for binding to the estrogen receptor: in accordance with the method of Example 1
Method: Binding function of estradiol and the PGFE to each uterus of rabbit were measured by the competitive receptor assay. Estradiol labelled by tritium (^3 H) was incubated with uterus of rabbit to bind it and then, estradiol or the PGFE was added to the system to measure the amount of free ^3 H-estradiol which was replaced by the added estradiol or the PGFE.

ICR-JCL pregnant mice [1] = assay: Side-effect test: tachycardia, respirogram and electrocardiogram by biophysiograph; assay type: in vivo; conditions: for tachycardia, respirogram and electrocardiogram compared with control: intravenous; for abnormal condition in tachycardia, respirogram and electrocardiogram: mice in pregnancy, before and after administration
Method: The tachycardia, respirogram and electrocardiogram of mice in pregnancy before and after the administration of PGF2 α, PGFE, PGFE-4AC and PGFE-3AC are tested by a biophysiograph 180-4(4ch) (manufactured by San-ei Sokuki K.K.).
(§1) Acute toxicity (LD50) and abnormal tachycardia, respirogram and electrocardiogram by a biophysiograph were tested.
Electrocardiogram was measured by a biophysiograph 180-4 (4 ch) (manufactured by San-ei Sokuki K.K.) for ICR-JCL pregnant mice (6th day) at 3 minutes after the administration of each sample.
In the test, 0.2 ml of 50% ethanol-saline solution was intravenously injected to the mice at a dose of 30γ per mouse. As the reference, the PGF2 α was also used as the sample (a dose of 15γ per mouse).
The results of the measurements are shown in FIGS. 2 to 5 wherein mV is given on ordinate and time (second) is given on abscissas and the chart speed was 250 mm/sec.

[2] = test system: ICR-JCL mice of the sixth day of pregnancy; assay: Test of abortion by subcutaneous injection, 4 days (Table 2); assay type: in vivo; conditions: s.c. once a day
Method: (§2) The continuous administrations were applied to ICR-JCL mice of the sixth day of pregnancy (5 mice as one group) to examine the efficiency of the abortion obtained by the drugs of this invention in comparison with that of PGF2 α. After 0.2 ml of 5% ethanol-saline solution containing the […], the […] or PGF2 α was given to the mice once a day during 4 days by intravenous injection and subcutaneous injection at some dose, their breeding were continued to confirm the abortion of the group administrated with the drugs until the partus of the control group administrated with only ethanol saline solution.

ICR-JCL pregnant mice [3] = assay: Abortion test, intravenous injection once a day during 4 days (Table 1); assay type: in vivo; conditions: i.v. once a day
Method: The abortion was studied with ICR-JCL pregnant mice by the continuous administration of the drug during 4 days and the side-effect in the administration was also examined. After 0.2 ml of 50% ethanol-saline solution containing the PGFE at dose 10γ and 30γ/mouse or PGF2 α at dose 15γ/mouse(equimole of PGFE 30γ) was intravenously injected to the mice once a day during 4 days, their breedings were continued to confirm the abortion of the group administrated with the drugs until the partus of the control group administrated with only ethanol saline solution.

[4] = test system: ICR-JCL mice of the sixth day of pregnancy; assay: Test of abortion by intravenous injection, 4 days (Table 3); assay type: in vivo; conditions: i.v. once a day
Method: as §2

ICR-JCL pregnant mice [5] = assay: Efficiency of abortion, summary in words of the tests in pregnant mice; assay type: in vivo; conditions: for abortion (in words): continuous administration during 4 days; for abortion effect in comparison with PGF2 α: suitable administrations and doses; for efficiency of abortion compared with PGF2 α: intravenous and subcutaneous, 4 days
Method: The efficiency of abortion of PGFE,PGFE-4AC and PGFE-3AC are tested as pharmacological effects in suitable administrations and doses by using ICR-JCL pregnant mice.
The continuous administrations were applied to ICR-JCL mice of the sixth day of pregnancy (5 mice as one group) to examine the efficiency of the abortion obtained by the drugs of this invention in comparison with that of PGF2 α. After 0.2 ml of 5% ethanol-saline solution containing the PGFE-3AC, the PGFE-4AC or PGF2 α was given to the mice once a day during 4 days by intravenous injection and subcutaneous injection at some dose, their breeding were continued to confirm the abortion of the group administrated with the drugs until the partus of the control group administrated with only ethanol saline solution.

ICR-JCL female mice = assay: Acute toxicity (LD50), intravenous injection; assay type: in vivo; conditions: for survival of mice (acute toxicity) / abnormality observed: 400 mg/kg; for survival of mice (acute toxicity): 10 mice; for LD50 (in words): 7 days, Litchfield-Wilcoxon graph method
Method: Acute toxicities (LD50) of PGFE,PGFE-4AC and PGFE-3A are measured by intravenous injections at a dose of 400 mg/kg to ten of ICR-JCL female mice (4 weeks age).
as §1
In the measurement of LD50, 10ICR-JCL female mice (4 week age) were used as one group. 0.2 ml of 50% ethanol-saline solution containing the drug of this invention was intravenously injected to the mice at several doses during 7 days to obtain their value of LD50 by Litchfield-Wilcoxon graph method.

[6] = in accordance with the method of Example 1
[7] = 30γ/mouse, 3 minutes after administration

| Compound | hysterotrimus (rats (uterus); [6]) | binding to the estrogen receptor (estrogen receptor) | abnormal condition in tachycardia, respirogram and electrocardiogram (ICR-JCL pregnant mice [1]) | Efficiency of abortion ([2]; 15 .tau./mouse) | Result of parturition (5 mice in group) ([2]; 15 .tau./mouse) | Efficiency of abortion ([2]; 30 .tau./mouse) | Result of parturition (5 mice in group) ([2]; 30 .tau./mouse) | Efficiency of abortion ([4]; 2.5 .tau./mouse) | Result of parturition (5 mice in group) ([4]; 2.5 .tau./mouse) | Efficiency of abortion ([4]; 5.0 .tau./mouse) | Result of parturition (5 mice in group) ([4]; 5.0 .tau./mouse) | survival of mice (acute toxicity) (ICR-JCL female mice) | abortion (in words) (ICR-JCL pregnant mice [5]; same dose as PGF2 α or less) | abortion effect in comparison with PGF2 α (ICR-JCL pregnant mice [5]) | tachycardia, respirogram and electrocardiogram compared with control (ICR-JCL pregnant mice [1]; [7]) | abnormality observed (ICR-JCL female mice) | LD50 (in words) (ICR-JCL female mice) | efficiency of abortion compared with PGF2 α (ICR-JCL pregnant mice [5]) | further results |
| --- | --- | --- | --- | --- | --- | --- | --- | --- | --- | --- | --- | --- | --- | --- | --- | --- | --- | --- | --- |
| CCCCC[C@H](O)/C=C/[C@@H]1[C@@H](C/C=C\CCCC(=O)OC2CC[C@H]3[C@@H]4CCc5cc(O)ccc5[C@H]4CC[C@]23C)[C@@H](O)C[C@H]1O (stereo partly shown) [Example 2] | cause hysterotrimus | bonded to the estrogen receptor |  |  |  |  |  |  |  |  |  |  |  |  |  |  |  |  |  |
| CCCCC[C@H](O)/C=C/[C@H]1[C@H](O)CC(=O)[C@@H]1C/C=C\CCCC(=O)OCC(=O)OCC(=O)[C@H]1CC[C@H]2[C@@H]3CCC4=CC(=O)CC[C@]4(C)[C@H]3CC[C@]12C [PGE2 P] | cause hysterotrimus | bonded to the estrogen receptor |  |  |  |  |  |  |  |  |  |  |  |  |  |  |  |  |  |
| CCCCC[C@H](O)/C=C/[C@@H]1[C@@H](C/C=C\CCCC(=O)O)[C@@H](O)C[C@H]1O [PGF2 α, 9α,11α,15α-trihydroxy-5(cis)-13(trans)-prostadienoic acid, reference compound] |  |  | abnormal conditions are clearly observed | 0% | 5 | 20% | 4 | 0% | 5 | 0% | 5 |  |  |  |  |  |  |  | tachycardia, respirogram and electrocardiogram compared with control (ICR-JCL pregnant mice [1]; 15γ/mouse, 3 minutes after administration (FIG. 3)): abnormally different from those of the control; Effect of abortion (ICR-JCL pregnant mice [3]; 15 γ/mouse): 0%; Result of parturition (5 mice in group) (ICR-JCL pregnant mice [3]; 15 γ/mouse): 5; Efficiency of abortion ([4]; 15.0 .tau./mouse): 20%; Result of parturition (5 mice in group) ([4]; 15.0 .tau./mouse): 4; cardiac activity (rats (uterus); 5γ, intravenous, rats): cardiac stop was caused; hysterotrimus (rats (uterus); 5γ, intravenous, rats): gaved of the hysterotrimus; abortion (in words) (ICR-JCL pregnant mice [5]; 15α (4.24×10^-8 moles)/mouse): The abortion is incomplete |
| CCCCC[C@H](O)/C=C/[C@@H]1[C@@H](C/C=C\CCCC(=O)OCC(=O)O[C@H]2CC[C@H]3[C@@H]4CCc5cc(O)ccc5[C@H]4CC[C@]23C)[C@@H](O)C[C@H]1O [PGFE, estra-1,3,5(10)-triene-3-hydroxy-17-oxycarbonylmethyl-9α,11α,15α-trihydroxy-5(cis)-13(trans)prostadienoate] |  |  | any abnormal condition is not observed |  |  |  |  |  |  |  |  | All of mice (10) are survived | satisfied results are obtained | greatly superior effect |  |  |  |  | Effect of abortion (ICR-JCL pregnant mice [3]; 10 γ/mouse): 100%; Result of parturition (5 mice in group) (ICR-JCL pregnant mice [3]; 10 γ/mouse): 0; Effect of abortion (ICR-JCL pregnant mice [3]; 30 γ/mouse): 100%; Result of parturition (5 mice in group) (ICR-JCL pregnant mice [3]; 30 γ/mouse): 0; hysterotrimus (rats (uterus); 5 to 50γ (printed "5 L to 50γ"), intravenous, rats): gaved of the hysterotrimus; cardiac activity (rats (uterus); 50γ, intravenous, rats): the cardiac activity was in the normal condition; beginning of hysterotrimus in comparison with PGF2 α (rats (uterus); intravenous, rats): some delay in the beginning of hystrotrimus; side-effect (rats (uterus); up to 50γ, intravenous, rats): no side-effect was found; binding function to estrogen receptor (estrogen receptor; uterus of rabbit, displacement of 3H-estradiol, FIG. 1): has the binding function to estrogen receptor as the same with the estradiol itself |
| CCCCC[C@@H](/C=C/[C@@H]1[C@@H](C/C=C\CCCC(=O)OCC(=O)O[C@H]2CC[C@H]3[C@@H]4CCc5cc(O)ccc5[C@H]4CC[C@]23C)[C@@H](OC(C)=O)C[C@H]1OC(C)=O)OC(C)=O [PGFE-3AC, estra-1,3,5(10)-triene-3-hydroxy-17-oxycarbonylmethyl-9α,11α,15α-triacetoxy-5(cis)-13(trans)-prostadienoate] |  |  | any abnormal condition is not observed | 100% | 0 |  |  | 60% | 2 | 100% | 0 | all of the mice were survived | satisfied results are obtained | greatly superior effect | substantially the same with those of the control | any abnormality was not observed | too high to be impossible to measure directly | remarkably superior | Efficiency of abortion ([4]; 1.0 .tau./mouse): 20%; Result of parturition (5 mice in group) ([4]; 1.0 .tau./mouse): 4; survival of mice (acute toxicity) (ICR-JCL female mice; listed as PGFE-3A): All of mice (10) are survived |
| CCCCC[C@@H](/C=C/[C@@H]1[C@@H](C/C=C\CCCC(=O)OCC(=O)O[C@H]2CC[C@H]3[C@@H]4CCc5cc(OC(C)=O)ccc5[C@H]4CC[C@]23C)[C@@H](OC(C)=O)C[C@H]1OC(C)=O)OC(C)=O [PGFE-4AC, estra-1,3,5(10)-triene-3-acetoxy-17-oxycarbonylmethyl-9α,11α,15α-triacetoxy-5(cis)-13(trans)prostadienoate] |  |  | any abnormal condition is not observed | 100% | 0 | 100% | 0 | 40% | 3 | 100% | 0 | all of the mice were survived; also recorded: All of mice (10) are survived | satisfied results are obtained | greatly superior effect | substantially the same with those of the control | any abnormality was not observed | too high to be impossible to measure directly | remarkably superior |  |
